Measured values as given in US6525001B1, “Substituted pyrimidine and pyridine herbicides” (Mid-American Commercialization Corporation, priority 1997, dated 2003).

Assays:
Type in all cases: in vivo
Parameters in all cases: key: 0 is no effect; 10 is complete control
rape (Brassica napus) = assay: Test B pre-/postemergence
Excerpt: (§1) Seeds of bedstraw (Galium aparine), blackgrass (Alopecurus myosuroides), broadleaf signalgrass (Brachiaria decumbens), cocklebur (Xanthium strumarium), corn (Zea mays), crabgrass (Digitaria sanguinalis), giant foxtail (Setaria faberii), lambsquarters (Chenopodium album), momingglory (Ipomoea hederacea), pigweed (Amaranthus retroflexus), rape (Brassica napus), soybean (Glycine max), sugar beet (Beta vulgaris), velvetleaf (Abutilon theophrasti), wheat (Triticum aestivum), wild oat (Avena fatua) and purple nutsedge (Cyperus rotundus) tubers were planted and treated preemergence with test chemicals formulated in a non-phytotoxic solvent mixture which included a surfactant.
(§2) At the same time, these crop and weed species were also treated with postemergence applications of test chemicals formulated in the same manner. Plants ranged in height from 2 to 18 cm (1- to 4-leaf stage) for postemergence treatments. Plant species in the flood test consisted of rice (Oryza sativa), smallflower flatsedge (Cyperus difformis), duck salad (Heteranthera limosa) and bamyardgrass (Echinochloa crus-galli) grown to the 2-leaf stage for testing. Treated plants and controls were maintained in a greenhouse for twelve to sixteen days, after which all species were compared to controls and visually evaluated. Plant response ratings, summarized in Table B, are based on a scale of 0 to 10 where 0 is no effect and 10 is complete control. A dash (−) response means no test result.

soybean (Glycine max) = assay: Test B pre-/postemergence
Excerpt: as §1, §2

[1] = tested on: blackgrass (Alopecurus myosuroides); assay: Test B pre-/postemergence
Excerpt: as §1, §2

[2] = tested on: velvetleaf (Abutilon theophrasti); assay: Test B pre-/postemergence
Excerpt: as §1, §2

[3] = tested on: momingglory (Ipomoea hederacea); assay: Test B pre-/postemergence
Excerpt: as §1, §2

[4] = tested on: cocklebur (Xanthium strumarium); assay: Test B pre-/postemergence
Excerpt: as §1, §2

[5] = tested on: crabgrass (Digitaria sanguinalis); assay: Test B pre-/postemergence
Excerpt: as §1, §2

[6] = tested on: giant foxtail (Setaria faberii); assay: Test B pre-/postemergence
Excerpt: as §1, §2

[7] = tested on: wheat (Triticum aestivum); assay: Test B pre-/postemergence
Excerpt: as §1, §2

[8] = tested on: purple nutsedge (Cyperus rotundus); assay: Test B pre-/postemergence
Excerpt: as §1, §2

[9] = tested on: bedstraw (Galium aparine); assay: Test B pre-/postemergence
Excerpt: as §1, §2

[10] = tested on: broadleaf signalgrass (Brachiaria decumbens); assay: Test B pre-/postemergence
Excerpt: as §1, §2

[11] = tested on: pigweed (Amaranthus retroflexus); assay: Test B pre-/postemergence
Excerpt: as §1, §2

corn (Zea mays) = assay: Test B pre-/postemergence
Excerpt: as §1, §2

wild oat (Avena fatua) = assay: Test B pre-/postemergence
Excerpt: as §1, §2

[12] = tested on: sugar beet (Beta vulgaris); assay: Test B pre-/postemergence
Excerpt: as §1, §2

rice (Oryza sativa) = assay: Test B flood test
Method in brief: (§3)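 Read-out is a visual response score from 0 (no effect) to 10 (complete control), assigned by comparison with untreated controls. Treatment was applied at the 2-leaf stage, and plants stayed in the greenhouse for twelve to sixteen days before scoring.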

[13] = tested on: smallflower flatsedge (Cyperus difformis); assay: Test B flood test
Method in brief: as §3

[14] = tested on: duck salad (Heteranthera limosa); assay: Test B flood test
Method in brief: as §3

[15] = tested on: bamyardgrass (Echinochloa crus-galli); assay: Test B flood test
Method in brief: as §3

[16] = Rate 62 g/ha, Postemergence (flood test)
[17] = Rate 125 g/ha, Postemergence, flood test
[18] = Rate 250 g/ha, Postemergence (flood test species)

Cc1cnc(-c2cccc(C(F)(F)F)c2)nc1Cc1cccc(C(F)(F)F)c1 [Compound 24]
Plant response rating, Rape (rape (Brassica napus); Rate 62 g/ha, Postemergence): 8 | Rape plant response rating (rape (Brassica napus); Rate 62 g/ha, Preemergence): 0 | Plant response rating, Rape (rape (Brassica napus); Rate 125 g/ha, Postemergence): 10 | Rape plant response rating (rape (Brassica napus); Rate 125 g/ha, Preemergence): 2 | Plant response rating, Rape (rape (Brassica napus); Rate 250 g/ha, Postemergence): 10 | Plant response rating, Rape (rape (Brassica napus); Rate 250 g/ha, Preemergence): 4 | Plant response rating, Soybean (soybean (Glycine max); Rate 62 g/ha, Postemergence): 3 | Soybean plant response rating (soybean (Glycine max); Rate 62 g/ha, Preemergence): 0 | Plant response rating, Soybean (soybean (Glycine max); Rate 125 g/ha, Postemergence): 6 | Soybean plant response rating (soybean (Glycine max); Rate 125 g/ha, Preemergence): 0 | Plant response rating, Soybean (soybean (Glycine max); Rate 250 g/ha, Postemergence): 6 | Plant response rating, Soybean (soybean (Glycine max); Rate 250 g/ha, Preemergence): 0 | Plant response rating, Blackgrass ([1]; Rate 62 g/ha, Postemergence): 2 | Blackgrass plant response rating ([1]; Rate 62 g/ha, Preemergence): 0 | Plant response rating, Blackgrass ([1]; Rate 125 g/ha, Postemergence): 3 | Blackgrass plant response rating ([1]; Rate 125 g/ha, Preemergence): 2 | Plant response rating, Blackgrass ([1]; Rate 250 g/ha, Postemergence): 4 | Plant response rating, Blackgrass ([1]; Rate 250 g/ha, Preemergence): 3 | Plant response rating, Velvetleaf ([2]; Rate 62 g/ha, Postemergence): 2 | Velvetleaf plant response rating ([2]; Rate 62 g/ha, Preemergence): 0 | Plant response rating, Velvetleaf ([2]; Rate 125 g/ha, Postemergence): 6 | Velvetleaf plant response rating ([2]; Rate 125 g/ha, Preemergence): 1 | Plant response rating, Velvetleaf ([2]; Rate 250 g/ha, Postemergence): 7 | Plant response rating, Velvetleaf ([2]; Rate 250 g/ha, Preemergence): 2 | Plant response rating, Morningglory ([3]; Rate 62 g/ha, Postemergence): 8 | Morningglory plant response rating ([3]; Rate 62 g/ha, Preemergence): 2 | Plant response rating, Morningglory ([3]; Rate 125 g/ha, Postemergence): 10 | Morningglory plant response rating ([3]; Rate 125 g/ha, Preemergence): 4 | Plant response rating, Morningglory ([3]; Rate 250 g/ha, Postemergence): 10 | Plant response rating, Morningglory ([3]; Rate 250 g/ha, Preemergence): 4 | Plant response rating, Cocklebur ([4]; Rate 62 g/ha, Postemergence): 9 | Cocklebur plant response rating ([4]; Rate 62 g/ha, Preemergence): 0 | Plant response rating, Cocklebur ([4]; Rate 125 g/ha, Postemergence): 9 | Cocklebur plant response rating ([4]; Rate 125 g/ha, Preemergence): 0 | Plant response rating, Cocklebur ([4]; Rate 250 g/ha, Postemergence): 10 | Plant response rating, Cocklebur ([4]; Rate 250 g/ha, Preemergence): 0 | Plant response rating, Crabgrass ([5]; Rate 62 g/ha, Postemergence): 8 | Crabgrass plant response rating ([5]; Rate 62 g/ha, Preemergence): 1 | Plant response rating, Crabgrass ([5]; Rate 125 g/ha, Postemergence): 8 | Crabgrass plant response rating ([5]; Rate 125 g/ha, Preemergence): 3 | Plant response rating, Crabgrass ([5]; Rate 250 g/ha, Postemergence): 8 | Plant response rating, Crabgrass ([5]; Rate 250 g/ha, Preemergence): 1 | Plant response rating, Giant foxtail ([6]; Rate 62 g/ha, Postemergence): 2 | Giant foxtail plant response rating ([6]; Rate 62 g/ha, Preemergence): 0 | Plant response rating, Giant foxtail ([6]; Rate 125 g/ha, Postemergence): 2 | Giant foxtail plant response rating ([6]; Rate 125 g/ha, Preemergence): 6 | Plant response rating, Giant foxtail ([6]; Rate 250 g/ha, Postemergence): 3 | Plant response rating, Giant foxtail ([6]; Rate 250 g/ha, Preemergence): 6 | Plant response rating, Wheat ([7]; Rate 62 g/ha, Postemergence): 2 | Wheat plant response rating ([7]; Rate 62 g/ha, Preemergence): 0 | Plant response rating, Wheat ([7]; Rate 125 g/ha, Postemergence): 2 | Wheat plant response rating ([7]; Rate 125 g/ha, Preemergence): 0 | Plant response rating, Wheat ([7]; Rate 250 g/ha, Postemergence): 3 | Plant response rating, Wheat ([7]; Rate 250 g/ha, Preemergence): 0 | Plant response rating, Nutsedge ([8]; Rate 62 g/ha, Postemergence): 0 | Nutsedge plant response rating ([8]; Rate 62 g/ha, Preemergence): 0 | Plant response rating, Nutsedge ([8]; Rate 125 g/ha, Postemergence): 1 | Nutsedge plant response rating ([8]; Rate 125 g/ha, Preemergence): 0 | Plant response rating, Nutsedge ([8]; Rate 250 g/ha, Preemergence): 0 | Plant response rating, Bedstraw ([9]; Rate 62 g/ha, Postemergence): 4 | Bedstraw plant response rating ([9]; Rate 62 g/ha, Preemergence): 0 | Plant response rating, Bedstraw ([9]; Rate 125 g/ha, Postemergence): 10 | Bedstraw plant response rating ([9]; Rate 125 g/ha, Preemergence): 1 | Plant response rating, Bedstraw ([9]; Rate 250 g/ha, Postemergence): 10 | Plant response rating, Bedstraw ([9]; Rate 250 g/ha, Preemergence): 1 | Plant response rating, B. signalgrass ([10]; Rate 62 g/ha, Postemergence): 2 | B. signalgrass plant response rating ([10]; Rate 62 g/ha, Preemergence): 2 | Plant response rating, B. signalgrass ([10]; Rate 125 g/ha, Postemergence): 2 | B. signalgrass plant response rating ([10]; Rate 125 g/ha, Preemergence): 3 | Plant response rating, B. signalgrass ([10]; Rate 250 g/ha, Postemergence): 3 | Plant response rating, B. signalgrass ([10]; Rate 250 g/ha, Preemergence): 6 | Plant response rating, Redroot pigweed ([11]; Rate 62 g/ha, Postemergence): 9 | Redroot pigweed plant response rating ([11]; Rate 62 g/ha, Preemergence): 0 | Plant response rating, Redroot pigweed ([11]; Rate 125 g/ha, Postemergence): 10 | Redroot pigweed plant response rating ([11]; Rate 125 g/ha, Preemergence): 8 | Plant response rating, Redroot pigweed ([11]; Rate 250 g/ha, Postemergence): 10 | Plant response rating, Redroot pigweed ([11]; Rate 250 g/ha, Preemergence): 10 | Plant response rating, Corn (corn (Zea mays); Rate 62 g/ha, Postemergence): 1 | Corn plant response rating (corn (Zea mays); Rate 62 g/ha, Preemergence): 0 | Plant response rating, Corn (corn (Zea mays); Rate 125 g/ha, Postemergence): 1 | Corn plant response rating (corn (Zea mays); Rate 125 g/ha, Preemergence): 0 | Plant response rating, Corn (corn (Zea mays); Rate 250 g/ha, Postemergence): 1 | Plant response rating, Corn (corn (Zea mays); Rate 250 g/ha, Preemergence): 0 | Plant response rating, Wild oats (wild oat (Avena fatua); Rate 62 g/ha, Postemergence): 2 | Wild oats plant response rating (wild oat (Avena fatua); Rate 62 g/ha, Preemergence): 0 | Plant response rating, Wild oats (wild oat (Avena fatua); Rate 125 g/ha, Postemergence): 3 | Wild oats plant response rating (wild oat (Avena fatua); Rate 125 g/ha, Preemergence): 1 | Plant response rating, Wild oats (wild oat (Avena fatua); Rate 250 g/ha, Postemergence): 4 | Plant response rating, Wild oats (wild oat (Avena fatua); Rate 250 g/ha, Preemergence): 4 | Plant response rating, Sugarbeets ([12]; Rate 62 g/ha, Postemergence): 10 | Sugarbeets plant response rating ([12]; Rate 62 g/ha, Preemergence): 2 | Plant response rating, Sugarbeets ([12]; Rate 125 g/ha, Postemergence): 10 | Sugarbeets plant response rating ([12]; Rate 125 g/ha, Preemergence): 3 | Plant response rating, Sugarbeets ([12]; Rate 250 g/ha, Postemergence): 10 | Plant response rating, Sugarbeets ([12]; Rate 250 g/ha, Preemergence): 9 | Plant response rating, Rice (rice (Oryza sativa); [16]): 1 | Plant response rating, Rice (rice (Oryza sativa); [17]): 1 | Plant response rating, Rice (rice (Oryza sativa); [18]): 2 | Plant response rating, S. Flatsedge [13, 16]: 0 | Plant response rating, S. Flatsedge [13, 17]: 1 | Plant response rating, S. Flatsedge [13, 18]: 3 | Plant response rating, Ducksalad [14, 16]: 0 | Plant response rating, Ducksalad [14, 17]: 2 | Plant response rating, Ducksalad [14, 18]: 3 | Plant response rating, Barnyardgrass [15, 16]: 2 | Plant response rating, Barnyardgrass [15, 17]: 3 | Plant response rating, Barnyardgrass [15, 18]: 4
